Here are results for 14 molecules from patent US20240116985A1, “STAPLED PEPTIDES AND METHODS THEREOF” (priority 2020, published 2024).

The target of the assay is T1, full-length beta-Catenin (Uniprot ID P35222) (Homo sapiens, UniProt P35222).
T1 construct: 10 nM full-length beta-Catenin (Uniprot ID P35222)
T1 sequence (P35222 1-781): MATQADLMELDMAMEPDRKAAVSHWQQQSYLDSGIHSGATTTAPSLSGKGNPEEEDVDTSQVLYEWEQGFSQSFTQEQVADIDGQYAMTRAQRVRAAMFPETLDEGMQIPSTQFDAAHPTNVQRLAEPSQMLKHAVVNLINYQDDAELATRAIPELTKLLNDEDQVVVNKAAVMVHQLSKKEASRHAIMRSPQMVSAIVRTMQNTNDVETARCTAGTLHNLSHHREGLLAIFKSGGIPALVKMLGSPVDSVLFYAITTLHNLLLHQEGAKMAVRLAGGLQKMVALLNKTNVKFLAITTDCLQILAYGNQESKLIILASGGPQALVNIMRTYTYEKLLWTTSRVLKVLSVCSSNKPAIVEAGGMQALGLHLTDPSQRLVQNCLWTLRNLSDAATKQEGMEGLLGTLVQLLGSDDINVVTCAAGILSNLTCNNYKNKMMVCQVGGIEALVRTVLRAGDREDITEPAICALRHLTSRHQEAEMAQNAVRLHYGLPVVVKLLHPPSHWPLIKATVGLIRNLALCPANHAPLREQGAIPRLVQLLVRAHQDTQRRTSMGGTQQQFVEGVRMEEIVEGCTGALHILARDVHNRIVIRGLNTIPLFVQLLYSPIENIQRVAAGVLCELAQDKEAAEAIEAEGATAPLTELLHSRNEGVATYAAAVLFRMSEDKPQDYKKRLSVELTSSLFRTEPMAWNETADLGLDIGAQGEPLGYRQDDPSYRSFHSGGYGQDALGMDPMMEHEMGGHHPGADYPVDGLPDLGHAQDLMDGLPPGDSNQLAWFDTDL
The assay is described as follows: Fluorescence polarization IC50 (beta-catenin / 5FAM-TCF4 10-53 competition). In kind it is binding. Particulars: fluorescence polarization; read-out: beta-Catenin FP IC50. Background: Fluorescence polarisation rises when a labelled molecule tumbles more slowly, as on binding a larger partner.

For orientation: IC50 means the concentration at which inhibition is half-maximal. Consider `CC(C)C[C@H](NC(=O)[C@]12CCN(C1)C(=O)OCCCC=CCCCC1(CCCC=CCCC(=O)N3CCC[C@@]3(C)C(=O)N[C@@H](CC(=O)O)C(=O)N1)C(=O)N[C@@H](C)C(=O)N[C@@H](CC(=O)O)C(=O)N[C@@H](Cc1cccc(C(=O)O)c1)C(=O)N[C@@H](C)C(=O)N[C@@H](C)C(=O)N[C@@H](Cc1ccccc1)C(=O)N2)C(=O)N[C@@H](Cc1ccsc1)C(=O)N[C@@H](Cc1csc2ccccc12)C(=O)N[C@@H](CCC(N)=O)C(N)=O` (stereo partly drawn) [I-2603, 4pentenyl-MePro-Asp-B5-Ala-Asp-3COOHF-Ala-Ala-Phe-PyrS2-Leu-3Thi-BztA-Gln-NH2], for which the IC50 came to 767 nM.

As for `CC(C)C[C@H](NC(=O)[C@]12CCN(C1)C(=O)OCCCCCCCCC1(CCCCCCCCC(=O)N3CCC[C@@]3(C)C(=O)N[C@@H](CC(=O)O)C(=O)N1)C(=O)N[C@@H](C)C(=O)N[C@@H](CC(=O)O)C(=O)N[C@@H](Cc1cccc(C(=O)O)c1)C(=O)N[C@@H](C)C(=O)N[C@@H](C)C(=O)N[C@@H](Cc1ccccc1)C(=O)N2)C(=O)N[C@@H](Cc1ccsc1)C(=O)N[C@@H](Cc1csc2ccccc12)C(=O)N[C@@H](CCC(N)=O)C(N)=O` (stereo partly drawn) [I-2604, 5hexenyl-MePro-Asp-B5-Ala-Asp-3COOHF-Ala-Ala-Phe-PyrS2-Leu-3Thi-BztA-Gln-NH2], the IC50 turned out to be 1120 nM. For `CC(C)C[C@H](NC(=O)[C@]12CCN(C1)C(=O)OCCCCCCCCC1(CCCCCCCC(=O)N3CCC[C@@]3(C)C(=O)N[C@@H](CC(=O)O)C(=O)N1)C(=O)N[C@@H](C)C(=O)N[C@@H](CC(=O)O)C(=O)N[C@@H](Cc1cccc(C(=O)O)c1)C(=O)N[C@@H](C)C(=O)N[C@@H](C)C(=O)N[C@@H](Cc1ccccc1)C(=O)N2)C(=O)N[C@@H](Cc1ccsc1)C(=O)N[C@@H](Cc1csc2ccccc12)C(=O)N[C@@H](CCC(N)=O)C(N)=O` (stereo partly drawn) [I-2605, 4pentenyl-MePro-Asp-B5-Ala-Asp-3COOHF-Ala-Ala-Phe-PyrS2-Leu-3Thi-BztA-Gln-NH2], the IC50 was found to be 608 nM. Next, `CC(C)C[C@H](NC(=O)[C@]12CCN(C1)C(=O)OCCCCCCCCC1(CCCCCCC(=O)N3CCC[C@@]3(C)C(=O)N[C@@H](CC(=O)O)C(=O)N1)C(=O)N[C@@H](C)C(=O)N[C@@H](CC(=O)O)C(=O)N[C@@H](CC(=O)O)C(=O)N[C@@H](C)C(=O)N[C@@H](C)C(=O)N[C@@H](Cc1ccccc1)C(=O)N2)C(=O)N[C@@H](Cc1ccsc1)C(=O)N[C@@H](Cc1csc2ccccc12)C(=O)N[C@@H](CCC(N)=O)C(N)=O` (stereo partly drawn) [I-2608, 3butenyl-MePro-Asp-B5-Ala-Asp-Asp-Ala-Ala-Phe-PyrS2-Leu-3Thi-BztA-Gln-NH2]: 251 nM. Next, `CC(=O)N1CCC[C@]12CC=CCCCC1(CCCC=CCCCOC(=O)N3CC(C(=O)N[C@@H](Cc4ccccc4C(F)(F)F)C(=O)N[C@@H](Cc4csc5ccccc45)C(=O)N[C@@H](CCC(N)=O)C(N)=O)(C3)NC(=O)[C@H](CC(C)C)NC(=O)[C@H](Cc3ccccc3)NC(=O)[C@H](C)NC(=O)[C@H](C)NC(=O)[C@H](Cc3cccc(C(=O)O)c3)NC(=O)[C@H](CC(=O)O)NC1=O)NC(=O)[C@H](CC(C)(C)C)NC(=O)[C@H](CC(=O)O)NC2=O` (stereo partly drawn) [I-2610, Ac-PL3-Asp-Npg-B5-Asp-3COOHF-Ala-Ala-Phe-Leu-Az2-2F3MeF-BztA-Gln-NH2]: 215 nM; `CC(=O)N1CCC[C@]12CC=CCCCC1(CCCC=CCCCCOC(=O)N3CC(C(=O)N[C@@H](Cc4ccccc4C(F)(F)F)C(=O)N[C@@H](Cc4csc5ccccc45)C(=O)N[C@@H](CCC(N)=O)C(N)=O)(C3)NC(=O)[C@H](CC(C)C)NC(=O)[C@H](Cc3ccccc3)NC(=O)[C@H](C)NC(=O)[C@H](C)NC(=O)[C@H](Cc3cccc(C(=O)O)c3)NC(=O)[C@H](CC(=O)O)NC1=O)NC(=O)[C@H](CC(C)(C)C)NC(=O)[C@H](CC(=O)O)NC2=O` (stereo partly drawn) [I-2611, Ac-PL3-Asp-Npg-B5-Asp-3COOHF-Ala-Ala-Phe-Leu-Az3-2F3MeF-BztA-Gln-NH2]: 188 nM. Regarding `CC(=O)N1CCC[C@]12CC=CCCCC1(CCCC=CCCCCOC(=O)N3CC(C(=O)N[C@@H](Cc4ccsc4)C(=O)N[C@@H](Cc4csc5ccccc45)C(=O)N[C@@H](CCC(N)=O)C(N)=O)(C3)NC(=O)[C@H](CC(C)C)NC(=O)[C@H](Cc3ccccc3)NC(=O)[C@H](C)NC(=O)[C@H](C)NC(=O)[C@H](Cc3cccc(C(=O)O)c3)NC(=O)[C@H](CC(=O)O)NC1=O)NC(=O)[C@H](CC(C)(C)C)NC(=O)[C@H](CC(=O)O)NC2=O` (stereo partly drawn) [I-2612, Ac-PL3-Asp-Npg-B5-Asp-3COOHF-Ala-Ala-Phe-Leu-Az3-3Thi-BztA-Gln-NH2], the IC50 was 85 nM. On to `CC(=O)N1CCC[C@]12CC=CCCCC1(CCCC=CCCCOC(=O)N3CC(C(=O)N[C@@H](Cc4ccccc4C(F)(F)F)C(=O)N[C@@H](Cc4csc5ccccc45)C(=O)N[C@@H](CCC(N)=O)C(N)=O)(C3)NC(=O)[C@H](CC(C)C)NC(=O)[C@H](Cc3ccccc3)NC(=O)[C@H](C)NC(=O)C(C)(C)NC(=O)[C@H](Cc3cccc(C(=O)O)c3)NC(=O)[C@H](CC(=O)O)NC1=O)NC(=O)[C@H](CC(C)(C)C)NC(=O)[C@H](CC(=O)O)NC2=O` (stereo partly drawn) [I-2613, Ac-PL3-Asp-Npg-B5-Asp-3COOHF-Aib-Ala-Phe-Leu-Az2-2F3MeF-BztA-Gln-NH2], for which the IC50 is 183 nM. Next, `CC(=O)N1CCC[C@]12CC=CCCCC1(CCCC=CCCCOC(=O)N3CC(C(=O)N[C@@H](Cc4ccccc4C(F)(F)F)C(=O)N[C@@H](Cc4csc5ccccc45)C(=O)N[C@@H](CCC(N)=O)C(N)=O)(C3)NC(=O)[C@H](CC(C)C)NC(=O)[C@H](Cc3ccccc3)NC(=O)[C@H](C)NC(=O)C(C)(C)NC(=O)[C@H](Cc3cccc(C(=O)O)c3)NC(=O)[C@H](CC(=O)O)NC1=O)NC(=O)[C@H](CC(C)(C)C)NC(=O)[C@H](CC(=O)O)NC2=O` (stereo partly drawn) [I-2614, Ac-PL3-Asp-Npg-B5-Asp-3COOHF-Aib-Ala-Phe-Leu-Az2-2F3MeF-BztA-Gln-NH2]: 97 nM. `CC(=O)N1CCC[C@]12CC=CCCCC1(CCCC=CCCCCOC(=O)N3CC(C(=O)N[C@@H](Cc4ccccc4C(F)(F)F)C(=O)N[C@@H](Cc4csc5ccccc45)C(=O)N[C@@H](CCC(N)=O)C(N)=O)(C3)NC(=O)[C@H](CC(C)C)NC(=O)[C@H](Cc3ccccc3)NC(=O)[C@H](C)NC(=O)C(C)(C)NC(=O)[C@H](Cc3cccc(C(=O)O)c3)NC(=O)[C@H](CC(=O)O)NC1=O)NC(=O)[C@H](CC(C)(C)C)NC(=O)[C@H](CC(=O)O)NC2=O` (stereo partly drawn) [I-2615, Ac-PL3-Asp-Npg-B5-Asp-3COOHF-Aib-Ala-Phe-Leu-Az3-2F3MeF-BztA-Gln-NH2]: the IC50 came out at 115 nM. Next, `CC(=O)N1CCC[C@]12CC=CCCCC1(CCCC=CCCCCOC(=O)N3CC(C(=O)N[C@@H](Cc4ccccc4C(F)(F)F)C(=O)N[C@@H](Cc4csc5ccccc45)C(=O)N[C@@H](CCC(N)=O)C(N)=O)(C3)NC(=O)[C@H](CC(C)C)NC(=O)[C@H](Cc3ccccc3)NC(=O)[C@H](C)NC(=O)C(C)(C)NC(=O)[C@H](Cc3cccc(C(=O)O)c3)NC(=O)[C@H](CC(=O)O)NC1=O)NC(=O)[C@H](CC(C)(C)C)NC(=O)[C@H](CC(=O)O)NC2=O` (stereo partly drawn) [I-2616, Ac-PL3-Asp-Npg-B5-Asp-3COOHF-Aib-Ala-Phe-Leu-Az3-2F3MeF-BztA-Gln-NH2]: 175 nM; `CC(=O)N1CCC[C@]12CC=CCCCC1(CCCC=CCCCOC(=O)N3CC(C(=O)N[C@@H](Cc4ccsc4)C(=O)N[C@@H](Cc4csc5ccccc45)C(=O)N[C@@H](CCC(N)=O)C(N)=O)(C3)NC(=O)[C@H](CC(C)C)NC(=O)[C@H](Cc3ccccc3)NC(=O)[C@H](C)NC(=O)C(C)(C)NC(=O)[C@H](Cc3cccc(C(=O)O)c3)NC(=O)[C@H](CC(=O)O)NC1=O)NC(=O)[C@H](CC(C)(C)C)NC(=O)[C@H](CC(=O)O)NC2=O` (stereo partly drawn) [I-2617, Ac-PL3-Asp-Npg-B5-Asp-3COOHF-Aib-Ala-Phe-Leu-Az2-3Thi-BztA-Gln-NH2]: 130 nM. As to `CC(=O)N1CCC[C@]12CC=CCCCC1(CCCC=CCCCCOC(=O)N3CC(C(=O)N[C@@H](Cc4ccsc4)C(=O)N[C@@H](Cc4csc5ccccc45)C(=O)N[C@@H](CCC(N)=O)C(N)=O)(C3)NC(=O)[C@H](CC(C)C)NC(=O)[C@H](Cc3ccccc3)NC(=O)[C@H](C)NC(=O)C(C)(C)NC(=O)[C@H](Cc3cccc(C(=O)O)c3)NC(=O)[C@H](CC(=O)O)NC1=O)NC(=O)[C@H](CC(C)(C)C)NC(=O)[C@H](CC(=O)O)NC2=O` (stereo partly drawn) [I-2618, Ac-PL3-Asp-Npg-B5-Asp-3COOHF-Aib-Ala-Phe-Leu-Az3-3Thi-BztA-Gln-NH2], the IC50 is 77 nM.

Regarding `CC(=O)N1CCC[C@]12CC=CCCCC1(CCCC=CCCCCOC(=O)N3CC(C(=O)N[C@@H](Cc4ccsc4)C(=O)N[C@@H](Cc4csc5ccccc45)C(=O)N[C@@H](CCC(N)=O)C(N)=O)(C3)NC(=O)[C@H](CC(C)C)NC(=O)[C@H](Cc3ccccc3)NC(=O)[C@H](C)NC(=O)C(C)(C)NC(=O)[C@H](Cc3cccc(C(=O)O)c3)NC(=O)[C@H](CC(=O)O)NC1=O)NC(=O)[C@H](CC(C)(C)C)NC(=O)[C@H](CC(=O)O)NC2=O` (stereo partly drawn) [I-2619, Ac-PL3-Asp-Npg-B5-Asp-3COOHF-Aib-Ala-Phe-Leu-Az3-3Thi-BztA-Gln-NH2], the IC50 was determined as 36 nM.
